Measured values published in patent publication US20250051391A1, “PEPTIDE INHIBITORS AND METHODS FOR INHIBITING PROTEIN AGGREGATION IN NEURONS AND NEURODEGENERATIVE DISEASES” (THE GOVERNING COUNCIL OF THE UNIVERSITY OF TORONTO, priority 2021, published 2025).

Experiments:
[1] = tested on: HEK293 cells overexpressing human a-syn (WT); assay: Cytotoxicity screen of lentiviral 7-mer peptide library, Alpha Syn (WT) cells under MG132; type: cell-based
Text: A screening system to discover candidate peptides to perturb endogenous PPIs based on libraries of short linear interaction motifs that mediate a large fraction (˜30%) of human PPIs (10-12) was recently developed. Here, a lentiviral library of 50,549 7-mer peptide motifs (13) on a green fluorescent protein (GFP) scaffold (FIG. 1A) was used. Cells in a pooled format were infected and the amino acid sequence of each peptide served as its own barcode. By using a low multiplicity of infection followed by puromycin selection, each infected cell expressed one unique GFP-peptide. Peptides that reduced a-syn-mediated cytotoxicity or a-syn oligomers in parallel (FIG. 1A), were screened for.
To cause cytotoxicity relevant to PD, proteostatic stress in HEK293 cells was induced by inhibiting the proteasome with MG132 and inducing the overexpression of human a-syn (WT) from idiopathic PD in one screen and the more toxic A53T mutant from familial PD in a second screen. The combination of a-syn overexpression and pharmacological proteasome inhibition led to death of most cells, with only those that expressed a protective peptide surviving. By extracting genomic DNA from the surviving cells and amplifying the peptide coding sequences, the protective peptides (FIG. 1A) were identified.
(§1) PCR primers that included the Illumina adaptor sequences were used to amplify peptide coding sequences recovered from selection and cell sorting. Results were demultiplexed, and peptide counts were tallied. After demultiplexing, only reads with an average quality Phred score of >30 were selected, and frequencies were calculated. Finally, the reads were then normalized to the total number of peptides read for that sample population, and a scalar factor was applied. In parallel, ˜25 individual colonies were Sanger sequenced to compare to the NGS data.
(§2) Lentiviruses were made in a 15 cm dish format by transfecting packaging cells (293T) with a three-plasmid system as previously described. Viral transduction of HEK293T cells, tet-off split luciferase a-syn cells, tet-off parent cells, and SH-SY5Y cells were performed with a multiplicity of infection of 0.3 (MOI=0.3). Infected cells were selected in puromycin-containing medium to eliminate uninfected cells and three aliquots of cells were collected for sampling of the initial (TO) cell population. Cells were treated with MG132 at concentrations of 0 μM, 10 μM, 25 μM or 50 μM. For the cell viability screen, surviving cells were collected and gDNA was extracted for identification of peptide inhibitors of cell toxicity. For the inhibition of a-syn aggregation screen, split YFP-a-syn constructs were transfected following stable expression of the peptides. Cells were sorted based on their GFP fluorescence intensities with a FACSVantage SE cell sorter (BD Bioscience).
Genomic DNA (gDNA) from peptide expressing cells at different time-points was extracted using QIAamp DNA Blood Mini Kit. PCR amplifications of peptides from gDNA in parallel with the lentiviral plasmid library (naïve library) were performed using indexed Illumina PCR primers to incorporate both the Illumina adapter sequences and indexing sequences. Each 50 μl reaction contained 3.2 μg of template, 2×PCR buffer, 2× enhancer solution, 300 μM each dNTP, 900 nM each of Adapter A (5′-[…]-[…]-3′) (SEQ ID NO: 42) and Adapter B (5′-[…]-[…]-3′) (SEQ ID NO: 43), 1 mM MgSO4, 3.75 units of Platinum Pfx polymerase, and water to 50 μl. The PCR reaction was performed by denaturing at 94° C. for 5 minutes, followed by cycling (94° C. for 30 seconds, 65° C. for 30 seconds, 68° C. for 30 seconds)×28 cycles, 68° C. for 5 minutes, then cooling to 4° C. The resulting 244 bp product was purified by electrophoresis in 2% agarose followed by gel extraction. Peptide libraries were quantified using Quant-It assay (Invitrogen) and pooled. […]

[2] = tested on: a-syn oligomers in HEK293 cells; assay: Oligomers screen (split YFP-a-syn protein fragment complementation, FACS); type: cell-based, human
Text: To detect a-syn oligomers, a protein fragment complementation assay (PCA) of a-syn oligomerization in HEK293 cells (14) was used. In this assay, human A53T a-syn was fused to either the C- or N-terminal half of yellow fluorescent protein (YFP). No fluorescence is detectable while a-syn exists in monomers but, when a-syn oligomerizes, the two halves of YFP come in close enough proximity to form a functional, spontaneously fluorescent protein. […] By using fluorescence activated cell sorting (FACS), cells expressing Flag-tagged peptides that directly or indirectly interfered with a-syn oligomer formation were isolated and then the peptides were identified from genomic DNA (FIG. 1A). The screens yielded 10 hits (Table 1). The hit with the most reads (i.e., the most abundant) was the same peptide in all screens: IPIQLKA (SEQ ID NO: 1) (PDpep1) (Table 2). […] Lead peptide targets CHMP2B, a member of ESCRT-III
as §1, §2
Cells were harvested by trypsin treatment and centrifuged at 500×g for 5 minutes. The pellet was resuspended in ice-cold PBS and centrifuged again. The pellet was then resuspended at a concentration of 4×10^6 cells/ml in the sorting buffer, which is PBS containing 100 Kunitz Dnase l/ml, 10 μg/ml propidium iodide (Sigma) and 2% FBS. The sorting solution was also supplemented with either 10 μM forskolin, 100 μM 5,6-Dichlorobenzimidazole riboside (DRB, Sigma), 10 μM forskolin (Sigma) and 100 μM DRB or DMSO, as a control. The cells were then sent through a 40 μm filter to remove large clumps and loaded into either a FACScan Flow Cytometer (BD Bioscience) for cell analysis or a FACSVantage SE cell sorter (BD Bioscience) for cell sorting. The cells with positive propidium iodide staining (i.e., dead cells) were first eliminated from the analysis or sorting pool. For cell sorting, the desired population, either the most or least bright EGFP-positive cells, according to the purpose of the experiments (see Results), was sorted into either 15 ml conical tubes or 96-well plates, which both contained complete DMEM culture media.
Genomic DNA (gDNA) from peptide expressing cells at different time-points was extracted using QIAamp DNA Blood Mini Kit. PCR amplifications of peptides from gDNA in parallel with the lentiviral plasmid library (naïve library) were performed using indexed Illumina PCR primers to incorporate both the Illumina adapter sequences and indexing sequences. […]

IPIQLKA [PDpep1, top hit of all screens; maps to CHMP2B residues 203-209]
Slope Norm Reads [1]: 3.45
Reads 0 uM MG132 ([1]; normalized Illumina peptide counts, 0 uM MG132): 90
Reads 10 UM MG132 ([1]; normalized Illumina peptide counts, 10 µM MG132): 1
Reads 25 UM MG132 ([1]; normalized Illumina peptide counts, 25 µM MG132): 1629
Reads 50 UM MG132 ([1]; normalized Illumina peptide counts, 50 µM MG132): 3375
Reads Ratio [2]: 1,218.98
Reads GFP High ([2]; FACS fraction GFP High): 12
Reads GFP Inter ([2]; FACS fraction GFP Inter): 2853
Reads GFP Neg ([2]; FACS fraction GFP Neg): 15556
